Type in all cases: cell-based
Assay [1] relates to FU-OV-1 cells (human ovarian carcinoma cells). Put plainly: Proliferation assay (alamarBlue) with FU-OV-1 cells. The following applies: compound at 20 μM. The text has this:
(§1) The antiproliferative activities of compounds falling under formula (Ia), (Ib) and (Ic), respectively, were investigated on cells or cell lines originating from a disorder of the haematopoietic system, including the myeloid cell compartment and the lymphoid cell compartment (T-cells and B-cells), the neuroendocrine system, the cervix, the breast, the ovaries, the lung, the gastrointestinal tract, and the mucosal epithelium, as well as from the skin epithelium and from the muscle. To this end, HL-60 cells, NB-4 cells, HH cells, RPMI-8402 cells, TANOUE cells, TT cells, HeLa cells, MDA-MB-231 cells, FU-OV-1 cells, LOU-NH91 cells, 23132/87 cells, CAL-27 cells, BHY cells, SCC-25 cells, A-431 cells, human primary epidermal keratinocytes (HPEK), and C2C12 cells were seeded into 96-well plates suitable for fluorescence assays (CORNING #3598) at following initial cell numbers: 1000 cells per well for HL-60; 1000 cells per well for NB-4; 5000 cells per well for HH; 5000 cells per well for RPMI-8402; 1500 cells per well for TANOUE; 9000 cells per well for TT; 2000 cells per well for HeLa; 3000 cells per well for MDA-MB-231; 3000 cells per well for FU-OV-1; 4000 cells per well for LOU-NH91; 2000 cells per well for 23132/87; 2000 cells per well for CAL-27; 1500 cells per well for BHY; 1500 cells per well for SCC-25; 700 cells per well for A-431; 1000 cells per well for HPEK; 500 cells per well for C2C12. The cells were treated with compounds at indicated final concentrations (diluted from the 1000× stock-solutions in DMSO to a final DMSO concentration of 0.1% v/v in H2O (Water For Injection, WFI, Fisherscientific #10378939)) or with the empty carrier DMSO at 0.1% v/v as control for 5 days. At day 5 after starting the treatments the cells were subjected to the alamarBlue® Proliferation Assay (Bio-Rad Serotec GmbH, BUF012B) according to the protocol of the manufacturer. The readout was taken with a multi-well plate-reader in the fluorescence mode with applying a filter for excitation at 560 nm (band width 10 nm) and for emission at 590 nm (band width 10 nm). Control treatments for growth inhibition with commercial compounds such as Methotrexate (MTREX) and Resveratrol (RES) were included on every plate. Some of the test compounds of the present invention were obtained and applied as their salts. According cases are indicated in the column “Specification” in Table 55 to Table 92 and by their sum formula in Table 93.
(§2) The assays were performed in duplicate or more replicates of independent single experiments each containing a six-fold replicate for every condition. For every individual plate, the measured fluorescence intensity values of the conditions with compound treatment were normalized against the corresponding equally weighted arithmetic mean of the fluorescence intensity values of the six DMSO treated control wells in order to obtain the relative values to a baseline level of 1.0.
(§3) Two independent outlier analyses were performed according to the methods by Peirce and Chauvenet (Ross, Journal of Engineering Technology 2003, 1-12). Outliers confirmed by at least one of the methods were excluded from the calculations but not more than one value out of six per compound within a single experiment. The weighted arithmetic mean (here abbreviated as AVEw) for each compound was calculated from the normalized values over all independent replicates of the single experiments comprising the six replicates each. The corresponding standard deviation for the weighted arithmetic mean was calculated according to the method described by Bronstein et al. (Bronstein, Semendjajew, Musiol, Müihlig, Taschenbuch der Mathematik, 5th edition 2001 (German), publisher: Verlag Harri Deutsch, Frankfurt am Main and Thun) and was combined with the Gauß' error propagation associated with the performed calculation for the normalization. The resulting standard deviation is herein referred to as “combined standard deviation”. […]
(The colour change of resazurin is a common sign of viable cells or microbes.)

Assay [2] has as its system HH cells (human cutaneous T-cell lymphoma cells). The experiment in a line: Proliferation assay (alamarBlue) with HH cells. The note with it: 20 μM.
Excerpt: as §1, §2, §3

For assay [3], the system named is LOU-NH91 cells (human lung squamous cell carcinoma cells). Put plainly: Proliferation assay (alamarBlue) with LOU-NH91 cells. The note with it: 20 μM.
Excerpt: as §1, §2, §3

Assay [4] has as its system TANOUE cells (human B cell leukemia cells). Put plainly: Proliferation assay (alamarBlue) with TANOUE cells. The following applies: compound at 20 μM.
Excerpt: as §1, §2, §3

The subject of assay [5] is TT cells (human medullary thyroid carcinoma cells). Put plainly: Proliferation assay (alamarBlue) with TT cells. The note with it: compound at 20 μM.
Excerpt: as §1, §2, §3

Assay [6] deals with 23132/87 cells (human gastric adenocarcinoma cells). The experiment in a line: Proliferation assay (alamarBlue) with 23132/87 cells. The note with it: 20 μM.
Excerpt: as §1, §2, §3

Assay [7] relates to C2C12 cells (murine myoblast cells). Put plainly: Proliferation assay (alamarBlue) with C2C12 cells. The following applies: compounds and controls at 20 μM. An excerpt: (§4) The antiproliferative activities of compounds falling under formula (Ia), (Ib) and (Ic), respectively, were investigated on cells or cell lines originating from a disorder of the haematopoietic system, including the myeloid cell compartment and the lymphoid cell compartment (T-cells and B-cells), the neuroendocrine system, the cervix, the breast, the ovaries, the lung, the gastrointestinal tract, and the mucosal epithelium, as well as from the skin epithelium and from the muscle. To this end, HL-60 cells, NB-4 cells, HH cells, RPMI-8402 cells, TANOUE cells, TT cells, HeLa cells, MDA-MB-231 cells, FU-OV-1 cells, LOU-NH91 cells, 23132/87 cells, CAL-27 cells, BHY cells, SCC-25 cells, A-431 cells, human primary epidermal keratinocytes (HPEK), and C2C12 cells were seeded into 96-well plates suitable for fluorescence assays (CORNING #3598) at following initial cell numbers: 1000 cells per well for HL-60; 1000 cells per well for NB-4; 5000 cells per well for HH; 5000 cells per well for RPMI-8402; 1500 cells per well for TANOUE; 9000 cells per well for TT; 2000 cells per well for HeLa; 3000 cells per well for MDA-MB-231; 3000 cells per well for FU-OV-1; 4000 cells per well for LOU-NH91; 2000 cells per well for 23132/87; 2000 cells per well for CAL-27; 1500 cells per well for BHY; 1500 cells per well for SCC-25; 700 cells per well for A-431; 1000 cells per well for HPEK; 500 cells per well for C2C12. […] The readout was taken with a multi-well plate-reader in the fluorescence mode with applying a filter for excitation at 560 nm (band width 10 nm) and for emission at 590 nm (band width 10 nm). […]
(§5) The assays were performed in duplicate or more replicates of independent single experiments each containing a six-fold replicate for every condition. For every individual plate, the measured fluorescence intensity values of the conditions with compound treatment were normalized against the corresponding equally weighted arithmetic mean of the fluorescence intensity values of the six DMSO treated control wells in order to obtain the relative values to a baseline level of 1.0. […]

Assay [8] relates to RPMI-8402 cells (human T cell acute lymphoblastic leukemia cells). The experiment in a line: Proliferation assay (alamarBlue) with RPMI-8402 cells. The following applies: 20 μM.
Excerpt: as §1, §2, §3

For assay [9], the system named is MDA-MB-231 cells (human breast carcinoma cells). The experiment in a line: Proliferation assay (alamarBlue) with MDA-MB-231 cells. The following applies: compound at 20 μM.
Excerpt: as §1, §2, §3

The subject of assay [10] is human epidermal keratinocyte progenitors (HPEKp, pooled). Put plainly: Proliferation assay (alamarBlue) with HPEKp cells. The note with it: control at 20 μM.
Excerpt: as §4, §5

Assay [11] deals with CAL-27 cells (human tongue squamous cell carcinoma cells). The experiment in a line: Proliferation assay (alamarBlue) with CAL-27 cells. The note with it: 20 μM.
Excerpt: as §1, §2, §3

The subject of assay [12] is A-431 cells (human epidermoid squamous cell carcinoma cells). The experiment in a line: Proliferation assay (alamarBlue) with A-431 cells. The following applies: 20 μM.
Excerpt: as §1, §2, §3

For `CN(Cc1cnc2nc(N)nc(N)c2n1)c1ccc(C(=O)N[C@@H](CCC(=O)O)C(=O)O)cc1` [MTREX, Methotrexate], the “Activity Range: weighted arithmetic mean (AVEw) of normalized fluorescence intensity relative to DMSO basis level 1.0” value is 1.0 ± 0.0 in assay [1] (Table 71 (novel compounds)); 1.0 ± 0.0 in [1] (Table 72 (compounds of PCT/EP2018/054686)); 0.1 ± 0.0 in assay [4] (Table 64 (compounds of PCT/EP2018/054686)); 1.0 ± 0.0 in assay [5] (Table 65 (novel compounds)); 1 ± 0.0 in assay [5] (Table 66 (compounds of PCT/EP2018/054686)); 0.6 ± 0.0 in assay [9] (Table 70 (compounds of PCT/EP2018/054686)). In addition, the “Activity Range: weighted arithmetic mean (AVEw) of normalized fluorescence intensity, proliferation assay with HH cells” value in [2] (relative to DMSO basis level 1.0, Table 59 (novel compounds)) came to 0.4 ± 0.1; in assay [2] (relative to DMSO basis level 1.0, Table 60 (compounds disclosed in PCT/EP2018/054686)) it was 0.4 ± 0.1. Further, the “Activity Range (weighted arithmetic mean AVEw of normalized fluorescence intensity, relative to DMSO basis level 1.0)” value is given as 0.5 ± 0.1 in [3] (Table 73 (novel compounds)); 0.5 ± 0.1 in [3] (Table 74 (compounds disclosed in PCT/EP2018/054686)); 0.3 ± 0.0 in assay [6] (Table 75 (novel compounds)); 0.3 ± 0.0 in assay [6] (Table 76 (compounds disclosed in PCT/EP2018/054686)); 0.1 ± 0.0 in assay [11] (Table 77 (novel compounds)); 0.1 ± 0.0 in [11] (Table 78 (compounds disclosed in PCT/EP2018/054686)). Also, the “Activity Range (weighted arithmetic mean AVEw of normalized fluorescence intensity, relative to DMSO basis level 1.0)” value in assay [12] (Table 84 (novel compounds)) and in [12] (Table 85 (compounds disclosed in PCT/EP2018/054686)) was 0.2 ± 0.1 each time. Also, the activity at 20 µM in assay [4] (Homo sapiens, B-cell, Table 63 (novel compounds), read-out: Activity Range: weighted arithmetic mean (AVEw) of normalized fluorescence intensity relative to DMSO basis level 1.0) came out at 10%; in assay [9] (Homo sapiens, Table 69 (novel compounds), read-out: Activity Range: weighted arithmetic mean (AVEw) of normalized fluorescence intensity relative to DMSO basis level 1.0) it was 60%. The “Activity Range: weighted arithmetic mean (AVEw) of normalized fluorescence intensity, relative to DMSO basis level of 1.0” value turned out to be 0.1 ± 0.0 in [7] and 0.9 ± 0.0 in assay [10]. The “Activity Range: weighted arithmetic mean (AVEw) of normalized fluorescence intensity, proliferation assay with RPMI-8402 cells” value in [8] (relative to DMSO basis level 1.0, Table 61 (novel compounds)) is 0.1 ± 0.0; in [8] (relative to DMSO basis level 1.0, Table 62 (compounds disclosed in PCT/EP2018/054686)), 0.1 ± 0.0.

Values taken from patent US20220354949A1, “NOVEL COMPOUNDS” (XENIOPRO GmbH, priority 2018, published 2022).
